The results in this text go back to ChEMBL document CHEMBL1122947, “Fluorine-containing amino acids and their derivatives. 4. Synthesis and antibacterial activity of threo and erythro 1-fluorodehydroxylated chloramphenicol analogues” (1985).

≈ marks a conversion by molar mass, not a printed value.

One assay concerns Pseudomonas aeruginosa. The experiment in a line: In vitro antibacterial activity against Pseudomonas aeruginosa. It counts as functional.
A further assay deals with Trichophyton asteroides. The experiment in a line: In vitro antifungal activity against Trichophyton asteroides.
For a further assay, the system named is Streptococcus pyogenes. The experiment in a line: In vitro antibacterial activity against Streptococcus pyogenes. It counts as functional.
A further assay has as its system Staphylococcus aureus. The experiment in a line: In vitro antibacterial activity against Staphylococcus aureus. It is filed as functional.
In a further assay the test system is Klebsiella pneumoniae. The experiment in a line: In vitro antibacterial activity against Klebsiella pneumoniae. It counts as functional.
Another assay relates to Escherichia coli. The experiment in a line: In vitro antibacterial activity against Escherichia coli. It counts as functional.
A further assay has as its system Trichophyton benhamiae. The experiment in a line: In vitro antifungal activity against Trichophyton asteroides. It is filed as functional.
The test system of a further assay is Aspergillus fumigatus. The experiment in a line: In vitro antifungal activity against Aspergillus fumigatus. It is filed as functional.
[1] abbreviates: Klebsiella pneumoniae, read-out: MIC.

The MIC is the least concentration at which growth counts as inhibited. As for `O=C(NC(CO)C(F)c1cccc([N+](=O)[O-])c1)C(Cl)Cl` (stereo not drawn), the MIC against Pseudomonas aeruginosa, with Trichophyton asteroides, with Streptococcus pyogenes, against Staphylococcus aureus, with Klebsiella pneumoniae (setting [1]) and in the assay on Escherichia coli was greater than 100 µg/mL in each case. Moreover, the MIC with Trichophyton benhamiae and in the assay with Aspergillus fumigatus was greater than 100 µg/mL throughout.

Turning to `O=C(NC(CO)C(F)c1ccc([N+](=O)[O-])cc1)C(Cl)Cl` (stereo in doubt; 3), in the assay on Klebsiella pneumoniae, the MIC is greater than 100 µg/mL.

In the case of `O=C(NC(CO)C(F)c1ccc([N+](=O)[O-])cc1)C(Cl)Cl` (stereo in doubt; 11), the MIC with Pseudomonas aeruginosa is greater than 100 µg/mL; against Trichophyton asteroides, greater than 100 µg/mL; in the assay with Streptococcus pyogenes, greater than 100 µg/mL; against Staphylococcus aureus, greater than 100 µg/mL; in the assay on Klebsiella pneumoniae (setting [1]), 50 µg/mL (≈ 154 µM); in the assay with Escherichia coli, greater than 100 µg/mL. The MIC against Trichophyton benhamiae and against Aspergillus fumigatus was greater than 100 µg/mL each time.

As to `O=C(NC(CO)C(F)c1ccccc1[N+](=O)[O-])C(Cl)Cl` (stereo not drawn), the MIC against Pseudomonas aeruginosa, in the assay with Trichophyton asteroides, with Streptococcus pyogenes, against Staphylococcus aureus, in the assay on Klebsiella pneumoniae (setting [1]) and with Escherichia coli was greater than 100 µg/mL throughout. The MIC against Trichophyton benhamiae and with Aspergillus fumigatus was greater than 100 µg/mL in each case.

In the case of `O=C(NC(CO)C(F)c1ccccc1)C(Cl)Cl` (stereo not drawn), the MIC in the assay on Pseudomonas aeruginosa, against Trichophyton asteroides, against Streptococcus pyogenes, with Staphylococcus aureus, in the assay with Klebsiella pneumoniae (setting [1]) and with Escherichia coli was greater than 100 µg/mL throughout. Further, the MIC in the assay on Trichophyton benhamiae and with Aspergillus fumigatus was greater than 100 µg/mL in each case.
